From ChEMBL document CHEMBL4420071, “Method for treating skin with retinoids and retinoid boosters” (2013)

Key:
Homo sapiens [1] = organism: Homo sapiens; test: Inhibition of transglutaminase in human keratinocytes at 1 uM relative to control; format: cell-based
Homo sapiens [2] = organism: Homo sapiens; test: Inhibition of transglutaminase in human keratinocytes assessed as mean transglutaminase activity level at 5.43 10^-7M in presence of 10 uM retinal relative to retinal alone; format: cell-based; design: scale not given: the % may be the effect or the level left
Rattus norvegicus = organism: Rattus norvegicus; test: Activation of retinol dehydrogenase in Sprague-Dawley rat liver microsomes assessed as increase in enzyme activity at 100 uM using all-trans retinol and NADP by HPLC analysis relative to control
Homo sapiens [3] = organism: Homo sapiens; test: Inhibition of transglutaminase in human keratinocytes assessed as mean transglutaminase activity level at 2.4 10^-9M in presence of 10 uM retinal relative to retinal alone; format: cell-based; design: scale not given: the % may be the effect or the level left
Homo sapiens [4] = organism: Homo sapiens; test: Inhibition of transglutaminase in human keratinocytes assessed as mean transglutaminase activity level at 6 10^-8M in presence of 10 uM retinal relative to retinal alone; format: cell-based; design: scale not given: the % may be the effect or the level left
Homo sapiens [5] = organism: Homo sapiens; test: Inhibition of transglutaminase in human keratinocytes assessed as mean transglutaminase activity level at 1.63 10^-6M in presence of 10 uM retinal relative to retinal alone; format: cell-based; design: scale not given: the % may be the effect or the level left
Homo sapiens [6] = organism: Homo sapiens; test: Inhibition of transglutaminase in human keratinocytes assessed as mean transglutaminase activity level at 4.4 10^-5M in presence of 10 uM retinal relative to retinal alone; format: cell-based; design: scale not given: the % may be the effect or the level left
Homo sapiens [7] = organism: Homo sapiens; test: Inhibition of transglutaminase in human keratinocytes assessed as mean transglutaminase activity level at 4.89 10^-6M in presence of 10 uM retinal relative to retinal alone; format: cell-based; design: scale not given: the % may be the effect or the level left
Homo sapiens [8] = organism: Homo sapiens; test: Inhibition of transglutaminase in human keratinocytes assessed as mean transglutaminase activity level at 1.2 10^-8M in presence of 10 uM retinal relative to retinal alone; format: cell-based; design: scale not given: the % may be the effect or the level left
Homo sapiens [9] = organism: Homo sapiens; test: Inhibition of transglutaminase in human keratinocytes assessed as mean transglutaminase activity level at 1.47 10^-5M in presence of 10 uM retinal relative to retinal alone; format: cell-based; design: scale not given: the % may be the effect or the level left
Homo sapiens [10] = organism: Homo sapiens; test: Inhibition of transglutaminase in human keratinocytes assessed as mean transglutaminase activity level at 1.8 10^-7M in presence of 10 uM retinal relative to retinal alone; format: cell-based; design: scale not given: the % may be the effect or the level left
Homo sapiens [11] = organism: Homo sapiens; test: Inhibition of transglutaminase in human keratinocytes assessed as mean transglutaminase activity level at 4.1 10^-8M in presence of 10 uM retinal relative to retinal alone; format: cell-based; design: scale not given: the % may be the effect or the level left
Homo sapiens [12] = organism: Homo sapiens; test: Inhibition of transglutaminase in human keratinocytes assessed as mean transglutaminase activity level at 3 10^-5M in presence of 10 uM retinal relative to retinal alone; format: cell-based; design: scale not given: the % may be the effect or the level left
Homo sapiens [13] = organism: Homo sapiens; test: Inhibition of transglutaminase in human keratinocytes assessed as mean transglutaminase activity level at 8.2 10^-8M in presence of 10 uM retinal relative to retinal alone; format: cell-based; design: scale not given: the % may be the effect or the level left
Homo sapiens [14] = organism: Homo sapiens; test: Inhibition of transglutaminase in human keratinocytes assessed as mean transglutaminase activity level at 1.1 10^-6M in presence of 10 uM retinal relative to retinal alone; format: cell-based; design: scale not given: the % may be the effect or the level left
Homo sapiens [15] = organism: Homo sapiens; test: Inhibition of transglutaminase in human keratinocytes assessed as mean transglutaminase activity level at 3.3 10^-6M in presence of 10 uM retinal relative to retinal alone; format: cell-based; design: scale not given: the % may be the effect or the level left
Homo sapiens [16] = organism: Homo sapiens; test: Inhibition of transglutaminase in human keratinocytes assessed as mean transglutaminase activity level at 1.23 10^-7M in presence of 10 uM retinal relative to retinal alone; format: cell-based; design: scale not given: the % may be the effect or the level left
Homo sapiens [17] = organism: Homo sapiens; test: Inhibition of transglutaminase in human keratinocytes assessed as mean transglutaminase activity level at 1.65 10^-9M in presence of 10 uM retinal relative to retinal alone; format: cell-based; design: scale not given: the % may be the effect or the level left
Homo sapiens [18] = organism: Homo sapiens; test: Inhibition of transglutaminase in human keratinocytes assessed as mean transglutaminase activity level at 3.73 10^-7M in presence of 10 uM retinal relative to retinal alone; format: cell-based; design: scale not given: the % may be the effect or the level left
Homo sapiens [19] = organism: Homo sapiens; test: Inhibition of transglutaminase in human keratinocytes assessed as mean transglutaminase activity level at 1 10^-5M in presence of 10 uM retinal relative to retinal alone; format: cell-based; design: scale not given: the % may be the effect or the level left
Homo sapiens [20] = organism: Homo sapiens; test: Inhibition of transglutaminase in human keratinocytes assessed as mean transglutaminase activity level at 1.1 10^-8M in presence of 10 uM retinal relative to retinal alone; format: cell-based; design: scale not given: the % may be the effect or the level left
Homo sapiens [21] = organism: Homo sapiens; test: Inhibition of transglutaminase in human keratinocytes assessed as mean transglutaminase activity level at 1.1 10^-4M in presence of 10 uM retinal relative to retinal alone; format: cell-based; design: scale not given: the % may be the effect or the level left
Homo sapiens [22] = organism: Homo sapiens; test: Inhibition of transglutaminase in human keratinocytes assessed as mean transglutaminase activity level at 8.2 10^-6M in presence of 10 uM retinal relative to retinal alone; format: cell-based; design: scale not given: the % may be the effect or the level left
Homo sapiens [23] = organism: Homo sapiens; test: Inhibition of transglutaminase in human keratinocytes assessed as mean transglutaminase activity level at 1.23 10^-5M in presence of 10 uM retinal relative to retinal alone; format: cell-based; design: scale not given: the % may be the effect or the level left
[24] = biological target: T1, Cellular retinoic acid-binding protein 2 (Homo sapiens) (UniProt P29373); test: Inhibition of radioactive all-trans retinoic acid binding to CRABP2 (unknown origin) expressed in Escherichia coli BLR(DE3)pLys incubated for 1 hr by scintillation counting assay; settings: concentration not given here
T1 sequence (whole entry): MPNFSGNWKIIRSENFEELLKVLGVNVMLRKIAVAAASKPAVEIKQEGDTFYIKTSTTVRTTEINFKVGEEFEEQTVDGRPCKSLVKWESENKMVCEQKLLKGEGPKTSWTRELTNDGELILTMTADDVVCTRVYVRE

Homo sapiens [25] = organism: Homo sapiens; test: Inhibition of transglutaminase in human keratinocytes assessed as mean transglutaminase activity level at 3.73 10^-4M in presence of 10 uM retinal relative to retinal alone; format: cell-based; design: scale not given: the % may be the effect or the level left
Homo sapiens [26] = organism: Homo sapiens; test: Inhibition of transglutaminase in human keratinocytes assessed as mean transglutaminase activity level at 1.0 10^-3M in presence of 10 uM retinal relative to retinal alone; format: cell-based; design: scale not given: the % may be the effect or the level left
Homo sapiens [27] = organism: Homo sapiens
Description: Inhibition of transglutaminase in human keratinocytes in presence of 10 uM retinal relative to retinal alone

Homo sapiens [28] = organism: Homo sapiens; test: Inhibition of transglutaminase in human keratinocytes assessed as mean transglutaminase activity level at 3.29 10^-7M in presence of 10 uM retinal relative to retinal alone; format: cell-based; design: scale not given: the % may be the effect or the level left
Homo sapiens [29] = organism: Homo sapiens; test: Inhibition of transglutaminase in human keratinocytes assessed as mean transglutaminase activity level at 5.0 10^-8M in presence of 10 uM retinal relative to retinal alone; format: cell-based; design: scale not given: the % may be the effect or the level left
Homo sapiens [30] = organism: Homo sapiens; test: Inhibition of transglutaminase in human keratinocytes assessed as mean transglutaminase activity level at 4.1 10^-5M in presence of 10 uM retinal relative to retinal alone; format: cell-based; design: scale not given: the % may be the effect or the level left
Homo sapiens [31] = organism: Homo sapiens; test: Inhibition of transglutaminase in human keratinocytes assessed as mean transglutaminase activity level at 1.65 10^-7M in presence of 10 uM retinal relative to retinal alone; format: cell-based; design: scale not given: the % may be the effect or the level left
Homo sapiens [32] = organism: Homo sapiens; test: Inhibition of transglutaminase in human keratinocytes assessed as mean transglutaminase activity level at 6.26 10^-8M in presence of 10 uM retinal relative to retinal alone; format: cell-based; design: scale not given: the % may be the effect or the level left
Homo sapiens [33] = organism: Homo sapiens; test: Inhibition of transglutaminase in human keratinocytes assessed as mean transglutaminase activity level at 1.25 10^-8M in presence of 10 uM retinal relative to retinal alone; format: cell-based; design: scale not given: the % may be the effect or the level left
Homo sapiens [34] = organism: Homo sapiens; test: Inhibition of transglutaminase in human keratinocytes assessed as mean transglutaminase activity level at 4.22 10^-5M in presence of 10 uM retinal relative to retinal alone; format: cell-based; design: scale not given: the % may be the effect or the level left
Homo sapiens [35] = organism: Homo sapiens; test: Inhibition of transglutaminase in human keratinocytes assessed as mean transglutaminase activity level at 1.14 10^-3M in presence of 10 uM retinal relative to retinal alone; format: cell-based; design: scale not given: the % may be the effect or the level left
Homo sapiens [36] = organism: Homo sapiens; test: Inhibition of transglutaminase in human keratinocytes assessed as mean transglutaminase activity level at 1.0 10^-9M in presence of 10 uM retinal relative to retinal alone; format: cell-based; design: scale not given: the % may be the effect or the level left
Homo sapiens [37] = organism: Homo sapiens; test: Inhibition of transglutaminase in human keratinocytes assessed as mean transglutaminase activity level at 6.9 10^-9M in presence of 10 uM retinal relative to retinal alone; format: cell-based; design: scale not given: the % may be the effect or the level left
Homo sapiens [38] = organism: Homo sapiens; test: Inhibition of transglutaminase in human keratinocytes assessed as mean transglutaminase activity level at 3.8 10^-4M in presence of 10 uM retinal relative to retinal alone; format: cell-based; design: scale not given: the % may be the effect or the level left
Homo sapiens [39] = organism: Homo sapiens; test: Inhibition of transglutaminase in human keratinocytes assessed as mean transglutaminase activity level at 4.69 10^-7M in presence of 10 uM retinal relative to retinal alone; format: cell-based; design: scale not given: the % may be the effect or the level left
Homo sapiens [40] = organism: Homo sapiens; test: Inhibition of transglutaminase in human keratinocytes assessed as mean transglutaminase activity level at 3.3123 10^-4M in presence of 10 uM retinal relative to retinal alone; format: cell-based; design: scale not given: the % may be the effect or the level left
Homo sapiens [41] = organism: Homo sapiens; test: Inhibition of transglutaminase in human keratinocytes assessed as mean transglutaminase activity level at 1.41 10^-6M in presence of 10 uM retinal relative to retinal alone; format: cell-based; design: scale not given: the % may be the effect or the level left

CC1=C(/C=C/C(C)=C/C=C/C(C)=C/C=O)C(C)(C)CCC1
inhibition (Homo sapiens [1]): 55%

CCCCCCCC/C=C\CCCCCCCC(=O)OC[C@H](COP(=O)([O-])OCC[N+](C)(C)C)OC(=O)CCCCCCCCCCCCCCC
Activity (Homo sapiens [2]): 86.7% | Activity (Rattus norvegicus): 21% | Activity (Homo sapiens [3]): 85.5% | Activity (Homo sapiens [4]): 87.8% | Activity (Homo sapiens [5]): 98.8% | Activity (Homo sapiens [6]): 90.9% | Activity (Homo sapiens [7]): 70.1% | Activity (Homo sapiens [8]): 159% | Activity (Homo sapiens [9]): 120% | Activity (Homo sapiens [10]): 75.9%

CCCCCCCC/C=C\CCCCCCCCCCCCCC(=O)N[C@@H](COP(=O)([O-])OCC[N+](C)(C)C)[C@H](O)/C=C/CCCCCCCCCCCCC
Activity (Rattus norvegicus): 26% | Activity (Homo sapiens [11]): 74.6% | Activity (Homo sapiens [12]): 45% | Activity (Homo sapiens [13]): 115% | Activity (Homo sapiens [14]): 98.8% | Activity (Homo sapiens [15]): 76.4% | Activity (Homo sapiens [16]): 70% | Activity (Homo sapiens [17]): 68.4% | Activity (Homo sapiens [18]): 91.6% | Activity (Homo sapiens [19]): 77.8%

CC(C)CCCCCCCCCCCCCCC(=O)O
Activity (Homo sapiens [20]): 78% | Activity (Homo sapiens [21]): 1.2% | Activity (Homo sapiens [22]): 103% | Activity (Homo sapiens [23]): 80% | inhibition [24]: > 50% | Activity (Homo sapiens [25]): -5.3% | Activity (Homo sapiens [26]): -8.6% | IC20 (Homo sapiens [27]): 6.23 ×10⁻⁵ M | Activity (Homo sapiens [28]): 123% | Activity (Homo sapiens [29]): 78% | Activity (Homo sapiens [30]): 67% | Activity (Homo sapiens [31]): 95%

O=C(Nc1ccc(Cl)cc1)Nc1ccc(Cl)c(Cl)c1
Activity (Homo sapiens [32]): 18.9% | Activity (Homo sapiens [33]): 100% | Activity (Homo sapiens [34]): -11.2% | Activity (Homo sapiens [35]): 36.3% | Activity (Homo sapiens [36]): 54.4% | Activity (Homo sapiens [37]): 77.6% | Activity (Homo sapiens [38]): 3.8% | Activity (Homo sapiens [39]): 15.9% | IC20 (Homo sapiens [27]): 6.18 ×10⁻⁷ M | Activity (Homo sapiens [40]): -3.2% | Activity (Homo sapiens [41]): -0.3%
